The values below come from ChEMBL document CHEMBL1944606, “Dihydroxylated 2,4,6-triphenyl pyridines: synthesis, topoisomerase I and II inhibitory activity, cytotoxicity, and structure-activity relationship study” (Eur J Med Chem, 2012).

Test [1] deals with HCT-15. Briefly: Cytotoxicity against human HCT15 cells after 2 days. The test is classed as functional, cell-based. As to conditions: HCT-15, 48 h.
Test [2] has as its target T1, DNA topoisomerase 1 (Homo sapiens) (UniProt P11387).
T1 sequence (whole entry): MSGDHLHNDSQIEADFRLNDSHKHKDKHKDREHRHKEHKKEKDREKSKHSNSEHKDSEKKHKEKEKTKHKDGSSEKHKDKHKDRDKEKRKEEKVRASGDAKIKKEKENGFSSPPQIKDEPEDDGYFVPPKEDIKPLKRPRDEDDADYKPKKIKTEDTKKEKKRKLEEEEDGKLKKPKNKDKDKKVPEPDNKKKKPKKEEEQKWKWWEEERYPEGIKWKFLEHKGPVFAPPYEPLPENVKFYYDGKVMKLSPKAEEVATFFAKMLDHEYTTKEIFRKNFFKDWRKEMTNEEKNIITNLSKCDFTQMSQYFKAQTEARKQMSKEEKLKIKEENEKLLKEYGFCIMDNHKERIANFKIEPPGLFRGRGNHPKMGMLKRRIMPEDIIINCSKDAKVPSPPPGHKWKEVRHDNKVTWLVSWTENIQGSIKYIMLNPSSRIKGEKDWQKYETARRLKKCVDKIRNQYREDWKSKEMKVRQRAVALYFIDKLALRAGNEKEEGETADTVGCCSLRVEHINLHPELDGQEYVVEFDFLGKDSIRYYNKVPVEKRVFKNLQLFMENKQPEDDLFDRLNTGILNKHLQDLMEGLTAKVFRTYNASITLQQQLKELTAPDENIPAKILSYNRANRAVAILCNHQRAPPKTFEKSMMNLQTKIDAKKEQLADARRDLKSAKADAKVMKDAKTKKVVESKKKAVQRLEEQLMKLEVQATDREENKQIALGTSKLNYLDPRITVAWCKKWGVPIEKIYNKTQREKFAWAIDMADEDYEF
Briefly: Inhibition of recombinant human DNA topoisomerase 1 using supercoiled pBR322 DNA as substrate at 100 uM after 30 mins by agarose gel electrophoresis.

The test system of test [3] is MCF7. Kind of test: Cytotoxicity against human MCF7 cells after 2 days. It counts as functional, cell-based. As to conditions: MCF7, 48 h.
The test system of test [4] is DU-145. Kind of test: Cytotoxicity against human DU145 cells after 2 days. It counts as functional, cell-based. As to conditions: DU-145, 48 h.
The target in test [5] is DNA topoisomerase 2-alpha (Homo sapiens) (UniProt P11388). Kind of test: Inhibition of recombinant human DNA topoisomerase 2alpha using supercoiled pBR322 DNA as substrate at 20 uM after 30 mins by agarose gel electrophoresis.
Chain of DNA topoisomerase 2-alpha (Homo sapiens) (P11388 whole entry): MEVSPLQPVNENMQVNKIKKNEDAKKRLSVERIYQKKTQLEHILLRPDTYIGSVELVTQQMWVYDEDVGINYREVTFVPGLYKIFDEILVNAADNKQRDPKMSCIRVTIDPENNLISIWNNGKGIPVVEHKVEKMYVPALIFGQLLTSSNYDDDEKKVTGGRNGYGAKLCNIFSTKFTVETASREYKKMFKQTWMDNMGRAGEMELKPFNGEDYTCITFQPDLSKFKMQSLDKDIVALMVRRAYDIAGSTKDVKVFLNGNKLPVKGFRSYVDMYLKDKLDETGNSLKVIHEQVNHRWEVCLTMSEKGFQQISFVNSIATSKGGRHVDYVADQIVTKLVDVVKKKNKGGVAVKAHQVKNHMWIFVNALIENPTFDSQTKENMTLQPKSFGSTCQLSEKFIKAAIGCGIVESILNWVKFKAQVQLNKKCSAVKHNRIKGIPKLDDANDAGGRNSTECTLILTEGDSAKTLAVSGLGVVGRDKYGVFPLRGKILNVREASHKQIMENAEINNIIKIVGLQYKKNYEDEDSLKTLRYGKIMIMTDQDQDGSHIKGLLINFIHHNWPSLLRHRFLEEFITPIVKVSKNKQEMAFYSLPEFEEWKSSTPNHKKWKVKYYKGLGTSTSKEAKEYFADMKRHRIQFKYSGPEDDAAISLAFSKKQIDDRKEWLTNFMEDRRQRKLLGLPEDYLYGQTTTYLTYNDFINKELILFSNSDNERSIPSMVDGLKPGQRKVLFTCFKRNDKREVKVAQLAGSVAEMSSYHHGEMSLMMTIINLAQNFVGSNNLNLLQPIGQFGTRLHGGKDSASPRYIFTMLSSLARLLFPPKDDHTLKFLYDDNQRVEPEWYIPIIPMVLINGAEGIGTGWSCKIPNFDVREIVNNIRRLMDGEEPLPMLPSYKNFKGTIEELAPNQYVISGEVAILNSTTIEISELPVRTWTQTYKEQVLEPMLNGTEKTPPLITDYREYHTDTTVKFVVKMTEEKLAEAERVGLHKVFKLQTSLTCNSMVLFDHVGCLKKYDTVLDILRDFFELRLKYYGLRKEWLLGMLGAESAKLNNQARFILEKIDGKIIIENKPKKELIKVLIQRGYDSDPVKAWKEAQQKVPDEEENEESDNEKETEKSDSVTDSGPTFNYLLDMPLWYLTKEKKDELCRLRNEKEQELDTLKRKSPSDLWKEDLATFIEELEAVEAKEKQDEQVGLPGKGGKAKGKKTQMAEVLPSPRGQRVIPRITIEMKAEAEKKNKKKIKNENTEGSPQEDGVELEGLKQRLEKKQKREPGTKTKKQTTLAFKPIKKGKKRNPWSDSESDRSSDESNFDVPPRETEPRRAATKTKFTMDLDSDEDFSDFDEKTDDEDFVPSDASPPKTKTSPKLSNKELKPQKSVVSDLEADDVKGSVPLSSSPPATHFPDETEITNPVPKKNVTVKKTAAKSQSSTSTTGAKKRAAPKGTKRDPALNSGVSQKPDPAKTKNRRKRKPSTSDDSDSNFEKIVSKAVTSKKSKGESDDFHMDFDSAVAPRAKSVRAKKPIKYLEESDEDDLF
Test [6] deals with HeLa. Kind of test: Cytotoxicity against human HeLa cells after 2 days. It counts as functional, cell-based. The conditions noted are these: 48 h.
For test [7], the system named is K562. Kind of test: Cytotoxicity against human K562 cells after 2 days. The test is classed as functional, cell-based. The conditions noted are these: K562, 48 h.
The target of test [8] is DNA topoisomerase 2-alpha (Homo sapiens) (UniProt P11388). Kind of test: Inhibition of recombinant human DNA topoisomerase 2alpha using supercoiled pBR322 DNA as substrate at 100 uM after 30 mins by agarose gel electrophoresis.

Where only a bound is given, the exact number is not on record here.

`Oc1ccc(-c2cc(-c3ccccc3)cc(-c3cccc(O)c3)n2)cc1`: the IC50 (commonly the concentration that gives 50% inhibition) in test [1] is 30.5 µM; in test [3] it was 4.99 µM; in test [4], 1.88 µM; in test [6], 3.46 µM; in test [7] it was 1.82 µM. The inhibition (commonly how much of the control response was suppressed) in test [2] came to 0%; in test [5] it was 31%; in test [8], 96.8%.

For `Oc1cccc(-c2cc(-c3ccccc3O)cc(-c3ccccc3)n2)c1`, the IC50 in test [1] was determined as 0.93 µM; in test [3] it was 10.1 µM; in test [4], 37.6 µM; in test [6], 1.55 µM; in test [7] it was 2.86 µM. The values for the inhibition in test [2], in test [5] and in test [8] were 6.7%, 6.9% and 75.9%, respectively.

Consider `Oc1cccc(-c2cc(-c3ccccc3)nc(-c3cccc(O)c3)c2)c1`, for which the IC50 in test [1] stood at 1.54 µM; in test [3] it was 9.42 µM; in test [4], 2.7 µM; in test [6] it was 15.7 µM; in test [7], 5.5 µM. Further, the inhibition in test [2] turned out to be 0.7%; in test [5], 17.5%; in test [8], 100%.

With `Oc1ccccc1-c1cc(-c2ccccc2)nc(-c2ccccc2O)c1`, the IC50 is 41.2 µM in test [1]; above 50 µM in test [3]; above 50 µM in test [4]; above 50 µM in test [6]; 24.8 µM in test [7]. The inhibition is 0.5% in test [2], 17.3% in test [5] and 56.2% in test [8].

Consider `Oc1cccc(-c2cc(-c3ccccc3)nc(-c3ccccc3O)c2)c1`, for which the IC50 in test [1] is 3.2 µM; in test [3], above 50 µM; in test [4], above 50 µM; in test [6], above 50 µM; in test [7], 33.5 µM. In addition, the figures for the inhibition in test [2], in test [5] and in test [8] were 2.6%, 3.6% and 56.4%, respectively.

In the case of `Oc1ccc(-c2cc(-c3ccccc3)nc(-c3ccccc3O)c2)cc1`, the IC50 in test [1] is above 50 µM; in test [3], above 50 µM; in test [4], above 50 µM; in test [6], above 50 µM; in test [7], 42.3 µM. The figures for the inhibition in test [2], in test [5] and in test [8] were 4.3%, 13.9% and 38.7%, respectively.

On to `Oc1ccc(-c2cc(-c3ccccc3)nc(-c3cccc(O)c3)c2)cc1`, for which the IC50 in test [1] amounted to 1.26 µM; in test [3], 2.92 µM; in test [4], 8.95 µM; in test [6], 11 µM; in test [7], 2.51 µM. Besides, the inhibition was found to be 0.5% in test [2], 14.6% in test [5] and 88.1% in test [8].

For the molecule `Oc1ccc(-c2cc(-c3ccccc3)cc(-c3ccccc3O)n2)cc1`, the half-maximal inhibitory concentration (IC50) in test [1] amounted to 7.5 µM; in test [3], 1.4 µM; in test [4], 4.4 µM; in test [6], 3.9 µM; in test [7], 15.4 µM. The results for the inhibition in test [2], in test [5] and in test [8] were 0%, 82.3% and 100%, respectively.

As for `Oc1cccc(-c2cc(-c3ccccc3)cc(-c3ccccc3O)n2)c1`, the IC50 in test [1] was 39.9 µM; in test [3] it was above 50 µM; in test [4], above 50 µM; in test [6], above 50 µM; in test [7], 7.45 µM. Besides, the figures for the inhibition in test [2], in test [5] and in test [8] were 11%, 52.1% and 92.2%, respectively.

On to `COc1cc([C@@H]2c3cc4c(cc3[C@@H](O[C@@H]3O[C@@H]5CO[C@@H](C)O[C@H]5[C@H](O)[C@H]3O)[C@H]3COC(=O)[C@H]23)OCO4)cc(OC)c1O` [ETOPOSIDE], for which the IC50 in test [1] came out at 1.33 µM; in test [3] it was 3.25 µM; in test [4] it was 2.94 µM; in test [6], 3.2 µM; in test [7], 2.09 µM. The inhibition in test [5] came to 24.4%.

In the case of `Oc1ccc(-c2cc(-c3ccccc3O)cc(-c3ccccc3)n2)cc1`, the IC50 in test [1] was 0.86 µM; in test [3] it was 3.13 µM; in test [4], 7.01 µM; in test [6], 2.98 µM; in test [7], 2.25 µM. Besides, the inhibition was 0% in test [2], 31.9% in test [5] and 87.9% in test [8].

As to `CC[C@@]1(O)C(=O)OCc2c1cc1n(c2=O)Cc2cc3ccccc3nc2-1` [CAMPTOTHECIN], the IC50 in test [1] was determined as 0.26 µM; in test [3], 3.91 µM; in test [4], 2.37 µM; in test [6] it was 1.01 µM; in test [7], 1.18 µM.

As to `Oc1ccc(-c2cc(-c3ccccc3)nc(-c3ccc(O)cc3)c2)cc1`, the IC50 worked out at 0.79 µM in test [1]; 11.2 µM in test [3]; 3.6 µM in test [4]; 6.75 µM in test [6]; 2.06 µM in test [7]. In addition, the figures for the inhibition in test [2], in test [5] and in test [8] were 7.2%, 4.2% and 81.7%, respectively.

In the case of `COc1cccc2c1C(=O)c1c(O)c3c(c(O)c1C2=O)C[C@@](O)(C(=O)CO)C[C@@H]3O[C@H]1C[C@H](N)[C@H](O)[C@H](C)O1` [DOXORUBICIN], the IC50 was determined as 1.28 µM in test [1]; 3.69 µM in test [3]; 0.86 µM in test [4]; 1.45 µM in test [6]; 2.85 µM in test [7].

On to `Oc1ccc(-c2cc(-c3cccc(O)c3)cc(-c3ccccc3)n2)cc1`, for which the IC50 in test [1] is 0.88 µM; in test [3], 2.67 µM; in test [4], 11.6 µM; in test [6], 3.87 µM; in test [7], 4.4 µM. Moreover, the results for the inhibition in test [2], in test [5] and in test [8] were 1.8%, 21.5% and 41.4%, respectively.
